Inhibition and IC50 data for four compounds are collected here from US5744339A, “Thiomethylene group-containing aldehyde cysteine and serine protease inhibitors” (Cephalon, Inc., priority 1996, dated 1998).

Common to all, as to assay type: biochemical
The target in one experiment is T1, α-chymotrypsin (Bos taurus, UniProt P00766).
T1 construct: purchased Sigma Chem. Co. C-3142
In words: Inhibition of α-chymotrypsin (serine protease) activity. The settings on record: 10 μM inhibitor; 0.03 mM SuccAla-Ala-Pro-Phe-AMC, pH 7.5; read-out: Chymotrypsin % I @ 10 μM. The protocol:
(§1) To evaluate inhibitory activity, stock solutions (40 times concentrated) of each compound to be tested were prepared in 100% anhydrous DMSO and 5 μL of each inhibitor preparation were aliquoted into each of three wells of a 96-well plate. Calpain I, prepared by a modification of the method of W. J. Lee et al. (Biochem. Internatl. 22: 163-171 (1990)), was diluted into assay buffer (i.e., 50 mM Tris, 50 mM NaCl, 1 mM EDTA, 1 mM EGTA, and 5 mM β-mercaptoethanol, pH 7.5 including 0.2 mM Succ-Leu-Tyr-MNA) and 175 μL aliquoted into the same wells containing the independent inhibitor stocks, as well as to positive control wells containing 5 μL DMSO, but no compound. To start the reaction, 20 μL of 50 mM CaCl2 in assay buffer was added to all wells of the plate, excepting three, which were used as background signal baseline controls. Substrate hydrolysis was monitored every 5 minutes for a total of 30 minutes using a Fluoroskan II fluorescence plate reader. Substrate hydrolysis in the absence of inhibitor was linear for up to 15 minutes.
(§2) Inhibition of calpain I activity was calculated as the percent decrease in the rate of substrate hydrolysis in the presence of inhibitor relative to the rate in its absence. Comparison between the inhibited and control rates was made within the linear range for substrate hydrolysis. For screening, compounds were tested at 10 μm. Compounds having 50% inhibition at 10 μM were considered active. The IC50s of inhibitors (i.e., the concentration yielding 50% inhibition) were determined from the percent decrease in the rates of substrate hydrolysis in the presence of five to seven different concentrations of the test compound. The results were plotted as % inhibition versus log inhibitor concentration and the IC50 was calculated from linear regression of the data.
(§3) Additionally,because α-chymotrypsin is not a calcium sensitive enzyme and is constitutively active, following addition of inhibitor stocks to the 96 well plates, 100 μl of a 2-fold concentrated stock of enzyme in dilution buffer was first added and the reaction started by addition of 10 μl of a 2-fold concentrated stock of substrate in assay buffer. Substrate hydrolysis was monitored every 5 minutes up to 30 minutes using a Fluoroskan II ([…]). The result is expressed as inhibition of α-chymotrypsin at 10 μM.

Another experiment addresses T2, cathepsin B (Homo sapiens, UniProt P07858).
T2 construct: purchased Calbiochem 219364
In words: Inhibition of cathepsin B (cysteine protease) activity. To be noted: 0.1 mM Cbz-Phe-Arg-AMC, pH 6.0; read-out: Cat B IC50. As to the method:
To evaluate inhibitory activity, stock solutions (40 times concentrated) of each compound to be tested were prepared in 100% anhydrous DMSO and 5 μL of each inhibitor preparation were aliquoted into each of three wells of a 96-well plate. Calpain I, prepared by a modification of the method of W. J. Lee et al. (Biochem. […] To start the reaction, 20 μL of 50 mM CaCl2 in assay buffer was added to all wells of the plate, excepting three, which were used as background signal baseline controls. Substrate hydrolysis was monitored every 5 minutes for a total of 30 minutes using a Fluoroskan II fluorescence plate reader. Substrate hydrolysis in the absence of inhibitor was linear for up to 15 minutes. Inhibition of calpain I activity was calculated as the percent decrease in the rate of substrate hydrolysis in the presence of inhibitor relative to the rate in its absence. Comparison between the inhibited and control rates was made within the linear range for substrate hydrolysis. For screening, compounds were tested at 10 μm. Compounds having 50% inhibition at 10 μM were considered active. […] The results were plotted as % inhibition versus log inhibitor concentration and the IC50 was calculated from linear regression of the data. […] Additionally, the order of reagents added to the plate was altered because both enzymes are constitutively active. Following inhibitor addition to the plates, appropriate 2× concentrated stock dilutions of the enzyme preparations were made in assay buffer and 10 ul added to each well. The assay was initiated by addition of 100 ul of 2× concentrated stock dilution of substrate in assay buffer. Substrate hydrolysis was monitored using a Fluoroskan II (ex=390 nm; em=460 nm).

The next experiment concerns the target T3, cathepsin L (Homo sapiens, UniProt P07711).
T3 construct: purchased Calbiochem 219402
Nature of the experiment: Inhibition of cathepsin L (cysteine protease) activity. The settings on record: 0.006 mM Cbz-Phe-Arg-AMC, pH 6.0; read-out: Cat L IC50. As to the method:
as §1, §2
Additionally, the order of reagents added to the plate was altered because both enzymes are constitutively active. Following inhibitor addition to the plates, appropriate 2× concentrated stock dilutions of the enzyme preparations were made in assay buffer and 10 ul added to each well.
The assay was initiated by addition of 100 ul of 2× concentrated stock dilution of substrate in assay buffer. Substrate hydrolysis was monitored using a Fluoroskan II (ex=390 nm; em=460 nm).

A further experiment has as its target T4, thrombin (Homo sapiens, UniProt P00734).
T4 construct: purchased Sigma Chem. Co. T-7009
In words: Inhibition of thrombin (serine protease) activity. The settings on record: 10 μM inhibitor; 25 μM Bz-Phe-Val-Arg-AMC, pH 7.5; read-out: Thrombin % I @ 10 μM. The protocol: as §3
Inhibition of thrombin (Sigma Chem. Co. Cat. #T-7009) was evaluated as described for chymotrypsin except that the assay was performed in 50 mM Tris, 10 mM CaCl2, pH 7.5 and the substrate was 25 μM Bz-Phe-Val-Arg-AMC (Bachem cat#I-1080).

Another experiment has as its target T5, Calpain I (Homo sapiens, UniProt P07384).
T5 construct: made in house
T5 sequence (P07384 1-714): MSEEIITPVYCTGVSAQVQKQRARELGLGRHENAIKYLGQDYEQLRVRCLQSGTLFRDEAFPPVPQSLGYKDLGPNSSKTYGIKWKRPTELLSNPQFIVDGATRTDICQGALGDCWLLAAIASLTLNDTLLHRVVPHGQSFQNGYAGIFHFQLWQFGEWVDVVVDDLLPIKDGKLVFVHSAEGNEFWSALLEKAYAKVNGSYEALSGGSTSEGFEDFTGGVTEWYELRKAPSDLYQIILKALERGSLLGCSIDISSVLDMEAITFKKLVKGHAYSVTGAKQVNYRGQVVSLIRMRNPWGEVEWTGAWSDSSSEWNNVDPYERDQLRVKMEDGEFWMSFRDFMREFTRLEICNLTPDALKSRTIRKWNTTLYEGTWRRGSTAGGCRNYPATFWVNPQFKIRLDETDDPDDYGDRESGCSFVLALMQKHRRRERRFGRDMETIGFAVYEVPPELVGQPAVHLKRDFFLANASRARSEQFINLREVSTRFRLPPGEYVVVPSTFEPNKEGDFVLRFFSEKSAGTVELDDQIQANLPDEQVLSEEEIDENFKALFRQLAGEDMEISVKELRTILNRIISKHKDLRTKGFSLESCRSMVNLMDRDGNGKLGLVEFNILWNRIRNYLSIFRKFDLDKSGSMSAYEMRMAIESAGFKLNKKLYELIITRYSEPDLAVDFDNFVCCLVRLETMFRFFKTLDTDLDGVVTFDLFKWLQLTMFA
T5 sequence (P04632 1-268 partner): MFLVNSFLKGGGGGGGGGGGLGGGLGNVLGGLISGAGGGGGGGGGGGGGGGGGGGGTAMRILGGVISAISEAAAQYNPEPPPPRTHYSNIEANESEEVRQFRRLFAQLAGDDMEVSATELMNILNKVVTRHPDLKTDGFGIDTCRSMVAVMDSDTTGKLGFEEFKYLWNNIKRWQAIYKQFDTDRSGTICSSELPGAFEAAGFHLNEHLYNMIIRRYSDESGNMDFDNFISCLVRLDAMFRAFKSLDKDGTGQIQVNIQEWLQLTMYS
In words: Inhibition of calpain I (cysteine protease) activity. To be noted: 0.2 mM Succ-Leu-Tyr-MNA, pH 7.5, CaCl2 start. As to the method:
To evaluate inhibitory activity, stock solutions (40 times concentrated) of each compound to be tested were prepared in 100% anhydrous DMSO and 5 μL of each inhibitor preparation were aliquoted into each of three wells of a 96-well plate. Calpain I, prepared by a modification of the method of W. J. Lee et al. (Biochem. […] To start the reaction, 20 μL of 50 mM CaCl2 in assay buffer was added to all wells of the plate, excepting three, which were used as background signal baseline controls. Substrate hydrolysis was monitored every 5 minutes for a total of 30 minutes using a Fluoroskan II fluorescence plate reader. Substrate hydrolysis in the absence of inhibitor was linear for up to 15 minutes. Inhibition of calpain I activity was calculated as the percent decrease in the rate of substrate hydrolysis in the presence of inhibitor relative to the rate in its absence. Comparison between the inhibited and control rates was made within the linear range for substrate hydrolysis. For screening, compounds were tested at 10 μm. Compounds having 50% inhibition at 10 μM were considered active. […] The results were plotted as % inhibition versus log inhibitor concentration and the IC50 was calculated from linear regression of the data.

T3 sequence (P07711 114-288 limits assumed): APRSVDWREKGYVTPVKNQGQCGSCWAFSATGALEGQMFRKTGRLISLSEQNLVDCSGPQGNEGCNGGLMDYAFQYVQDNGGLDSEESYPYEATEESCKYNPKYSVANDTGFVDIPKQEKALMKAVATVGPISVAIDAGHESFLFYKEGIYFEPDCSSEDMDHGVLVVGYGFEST
T3 sequence (P07711 292-333 limits assumed): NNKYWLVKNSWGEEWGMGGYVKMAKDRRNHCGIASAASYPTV

A word on the IC50: it is the midpoint of a concentration-inhibition curve. Consider `CC(C)CC(CC[S+]([O-])c1ccc2ccccc2c1)C(=O)N[C@H](C=O)CC(C)C` (some centres unmarked) [Compound 13, 2-Naphthyl--S(O)--CH2 CH2 CH(iBu)CO--Leu--H], for which the inhibition at 10 µM at α-chymotrypsin was 18%; at thrombin it was 2%. Also, the IC50 on cathepsin B was found to be 60 nM; on cathepsin L it was 3 nM; against Calpain I it was 30 nM.

As to `CC(C)C[C@@H](CCS(=O)(=O)c1ccc2ccccc2c1)C(=O)N[C@H](C=O)CC(C)C` [Compound 9, 2-Naphthylsulfonyl--CH2 CH2 CH(iBu)CO--Leu--H], the inhibition at 10 µM at α-chymotrypsin was found to be 12%; at thrombin it was 2%. Besides, the IC50 on cathepsin B was found to be 4500 nM; at cathepsin L, 32 nM; on Calpain I, 500 nM.

Turning to `CC(C)CC(CCSc1ccc2ccccc2c1)C(=O)N[C@H](C=O)CC(C)C` (some centres unmarked) [Compound 11, 2-Naphthyl--SCH2 CH2 CH(iBu)CO--Leu--H], the inhibition at 10 µM was determined as 11% at α-chymotrypsin and 5% on thrombin. Moreover, the figures for the IC50 on cathepsin B, at cathepsin L and against Calpain I were 60 nM, 8 nM and 75 nM, respectively.

Consider `CC(C)C[C@H](CCS(=O)(=O)c1ccc2ccccc2c1)C(=O)N[C@H](C=O)CC(C)C` [Compound 10, 2-Naphthylsulfonyl--CH2 CH2 CH(iBu)CO--Leu--H], for which the inhibition at 10 µM at α-chymotrypsin came out at 11%; at thrombin, 1%. For the same compound, the figures for the IC50 at cathepsin B, at cathepsin L and against Calpain I were 150 nM, 3 nM and 50 nM, respectively.
